The target of test [1] is T1, Indoleamine 2,3-dioxygenase 1 (Homo sapiens, UniProt P14902). Description: Inhibition of human recombinant indoleamine 2,3-dioxygenase.
Target sequence in this assay (P14902 whole entry): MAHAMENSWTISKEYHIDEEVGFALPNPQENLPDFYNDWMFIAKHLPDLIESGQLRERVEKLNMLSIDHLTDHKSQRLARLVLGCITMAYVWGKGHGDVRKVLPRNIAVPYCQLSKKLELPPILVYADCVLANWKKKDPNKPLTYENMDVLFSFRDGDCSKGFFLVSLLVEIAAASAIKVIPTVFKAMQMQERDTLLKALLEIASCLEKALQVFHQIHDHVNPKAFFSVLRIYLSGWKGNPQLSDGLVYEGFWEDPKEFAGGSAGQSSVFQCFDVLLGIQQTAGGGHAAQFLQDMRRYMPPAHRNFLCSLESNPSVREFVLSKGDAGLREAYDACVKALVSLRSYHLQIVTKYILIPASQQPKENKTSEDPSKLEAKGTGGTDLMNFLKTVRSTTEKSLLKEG
The target of test [2] is T1, Indoleamine 2,3-dioxygenase 1. Kind of test: Inhibition of human recombinant indoleamine 2,3-dioxygenase at =< 500000 nM.
Target sequence in this assay (P14902 whole entry, looked up): as the sequence (P14902 whole entry) above

Activity calls are given as the source filed them. The calls are words filed in the database; no cut-off is given here.

As usually defined, the Ki is the equilibrium dissociation constant of an inhibitor or competing ligand from its target.

On to `O=C1C=CC(=O)c2[nH]ccc21`, for which the Ki in test [1] turned out to be 190 nM.

With `O=C(NCCc1c[nH]c2c1C(=O)C=CC2=O)OCc1ccccc1`, in test [1], the Ki worked out at 1490 nM.

Consider `NCCc1c[nH]c2c1C(=O)c1c(c(-c3ccccc3)c3ccccc3c1-c1ccccc1)C2=O`, for which the outcome in test [2] was inactive.

Consider `Oc1cccc2[nH]ccc12`, for which the result in test [2] was inactive.

Values taken from ChEMBL document CHEMBL1150237, “Synthesis of indoleamine 2,3-dioxygenase inhibitory analogues of the sponge alkaloid exiguamine A” (J Med Chem, 2008).
